Source: the supplement of paper PMC10307832

Tests used:
Test in all cases: relative viability (nuclei count vs DMSO), 5 days (fraction); higher = more cells survive
Bleomycin + Palbociclib = compound: CC1=C(N=C(N=C1N)[C@H](CC(=O)N)NC[C@@H](C(=O)N)N)C(=O)N[C@@H]([C@H](C2=CN=CN2)OC3C(C(C(C(O3)CO)O)O)OC4C(C(C(C(O4)CO)O)OC(=O)N)O)C(=O)N[C@H](C)[C@H]([C@H](C)C(=O)N[C@@H]([C@@H](C)O)C(=O)NCCC5=NC(=CS5)C6=NC(=CS6)C(=O)NCCC[S+](C)C)O [Bleomycin] + CC(=O)c1c(C)c2cnc(Nc3ccc(N4CCNCC4)cn3)nc2n(C2CCCC2)c1=O [Palbociclib] (partner 0.5 µM); settings: main component drawn
How it was run: (§1)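 One day after seeding in 1536-well plates, lung cancer cell lines were dosed by pin tool. Dosing was either single-drug or a fixed anchor-drug dose plus five library-drug doses (not always all listed) in √10 steps. After 5 days, nuclei were stained in one fix-and-stain step and counted on 4× images, and relative viability is the nuclei count of treated wells over that of vehicle wells, given as the median of duplicate plates.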

Bleomycin + Luminespib = compound: CC1=C(N=C(N=C1N)[C@H](CC(=O)N)NC[C@@H](C(=O)N)N)C(=O)N[C@@H]([C@H](C2=CN=CN2)OC3C(C(C(C(O3)CO)O)O)OC4C(C(C(C(O4)CO)O)OC(=O)N)O)C(=O)N[C@H](C)[C@H]([C@H](C)C(=O)N[C@@H]([C@@H](C)O)C(=O)NCCC5=NC(=CS5)C6=NC(=CS6)C(=O)NCCC[S+](C)C)O [Bleomycin] + CCNC(=O)c1noc(-c2cc(C(C)C)c(O)cc2O)c1-c1ccc(CN2CCOCC2)cc1 [Luminespib] (partner 0.01 µM); settings: main component drawn
How it was run: as §1

Bleomycin + AZD7762 = compound: CC1=C(N=C(N=C1N)[C@H](CC(=O)N)NC[C@@H](C(=O)N)N)C(=O)N[C@@H]([C@H](C2=CN=CN2)OC3C(C(C(C(O3)CO)O)O)OC4C(C(C(C(O4)CO)O)OC(=O)N)O)C(=O)N[C@H](C)[C@H]([C@H](C)C(=O)N[C@@H]([C@@H](C)O)C(=O)NCCC5=NC(=CS5)C6=NC(=CS6)C(=O)NCCC[S+](C)C)O [Bleomycin] + NC(=O)Nc1cc(-c2cccc(F)c2)sc1C(=O)N[C@H]1CCCNC1 [AZD7762] (partner 0.2 µM); settings: main component drawn
How it was run: as §1

Etoposide + Palbociclib = compound: COc1cc([C@@H]2c3cc4c(cc3[C@@H](O[C@@H]3O[C@@H]5CO[C@@H](C)O[C@H]5[C@H](O)[C@H]3O)[C@H]3COC(=O)[C@H]23)OCO4)cc(OC)c1O [Etoposide] + CC(=O)c1c(C)c2cnc(Nc3ccc(N4CCNCC4)cn3)nc2n(C2CCCC2)c1=O [Palbociclib] (partner 0.5 µM)
How it was run: as §1

Cell Line | relative viability (Bleomycin + Palbociclib; first compound 0.01 µM) | relative viability (Bleomycin + Palbociclib; first compound 0.03162 µM) | relative viability (Bleomycin + Palbociclib; first compound 0.1 µM) | relative viability (Bleomycin + Palbociclib; first compound 0.3162 µM) | relative viability (Bleomycin + Palbociclib; first compound 1 µM) | relative viability (Bleomycin + Luminespib; first compound 0.01 µM) | relative viability (Bleomycin + Luminespib; first compound 0.03162 µM) | relative viability (Bleomycin + Luminespib; first compound 0.1 µM) | relative viability (Bleomycin + Luminespib; first compound 0.3162 µM) | relative viability (Bleomycin + Luminespib; first compound 1 µM) | relative viability (Bleomycin + AZD7762; first compound 0.01 µM) | relative viability (Bleomycin + AZD7762; first compound 0.03162 µM) | relative viability (Bleomycin + AZD7762; first compound 0.1 µM) | relative viability (Bleomycin + AZD7762; first compound 0.3162 µM) | relative viability (Bleomycin + AZD7762; first compound 1 µM) | relative viability (Etoposide + Palbociclib; first compound 0.01 µM) | relative viability (Etoposide + Palbociclib; first compound 0.03162 µM) | relative viability (Etoposide + Palbociclib; first compound 0.1 µM) | relative viability (Etoposide + Palbociclib; first compound 0.3162 µM) | relative viability (Etoposide + Palbociclib; first compound 1 µM)
NCI-H3122 | 0.198 | 0.186 | 0.18 | 0.132 | 0.148 | 0.103 | 0.145 | 0.101 | 0.111 | 0.0599 | 0.972 | 0.991 | 0.966 | 0.379 | 0.33 | 0.218 | 0.219 | 0.164 | 0.182 | 0.165
NCI-H358 | 0.142 | 0.178 | 0.115 | 0.133 | 0.111 | 0.307 | 0.251 | 0.27 | 0.23 | 0.283 | 0.417 | 0.579 | 0.551 | 0.426 | 0.446 | 0.132 | 0.148 | 0.131 | 0.104 | 0.0757
NCI-H1944 | 0.228 | 0.188 | 0.218 | 0.156 | 0.13 | 0.363 | 0.318 | 0.269 | 0.176 | 0.148 | 0.246 | 0.384 | 0.317 | 0.211 | 0.172 | 0.315 | 0.358 | 0.233 | 0.231 | 0.198
NCI-H2342 | 0.553 | 0.546 | 0.519 | 0.488 | 0.433 | 0.646 | 0.665 | 0.693 | 0.523 | 0.525 | 0.5 | 0.611 | 0.495 | 0.589 | 0.42 | 0.463 | 0.542 | 0.423 | 0.425 | 0.331
EPLC-272H | 0.329 | 0.311 | 0.311 | 0.213 | 0.218 | 0.361 | 0.23 | 0.203 | 0.145 | 0.133 | 0.208 | 0.192 | 0.145 | 0.114 | 0.112 | 0.359 | 0.284 | 0.326 | 0.339 | 0.304
NCI-H1915 | 0.419 | 0.389 | 0.332 | 0.173 | 0.131 | 0.533 | 0.568 | 0.398 | 0.235 | 0.145 | 0.53 | 0.552 | 0.314 | 0.221 | 0.137 | 0.471 | 0.569 | 0.506 | 0.459 | 0.375
NCI-H647 | 0.189 | 0.207 | 0.138 | 0.119 | 0.0651 | 0.111 | 0.169 | 0.104 | 0.0882 | 0.0947 | 0.166 | 0.284 | 0.112 | 0.0842 | 0.0575 | 0.423 | 0.458 | 0.321 | 0.258 | 0.216
NCI-H441 | 0.182 | 0.203 | 0.185 | 0.153 | 0.17 | 0.31 | 0.331 | 0.251 | 0.223 | 0.216 | 1.05 | 0.977 | 1.17 | 0.689 | 0.775 | 0.194 | 0.251 | 0.177 | 0.191 | 0.128
NCI-H23 | 0.311 | 0.251 | 0.25 | 0.15 | 0.152 | 0.228 | 0.2 | 0.211 | 0.176 | 0.216 | 0.259 | 0.241 | 0.159 | 0.121 | 0.119 | 0.504 | 0.515 | 0.485 | 0.334 | 0.236
NCI-H522 | 0.904 | 0.829 | 0.76 | 0.386 | 0.4 | 0.775 | 0.66 | 0.508 | 0.319 | 0.414 | 0.76 | 0.796 | 0.65 | 0.519 | 0.468 | 0.926 | 0.988 | 0.849 | 1.16 | 0.797
NCI-H650 | 0.282 | 0.34 | 0.307 | 0.255 | 0.2 | 0.541 | 0.729 | 0.694 | 0.2 | 0.15 | 0.949 | 1.07 | 0.723 | 0.515 | 0.36 | 0.29 | 0.299 | 0.26 | 0.237 | 0.161
NCI-H2170 | 0.328 | 0.342 | 0.307 | 0.274 | 0.259 | 0.604 | 0.494 | 0.593 | 0.355 | 0.515 | 0.781 | 0.63 | 0.687 | 0.467 | 0.421 | 0.382 | 0.427 | – | 0.36 | 0.319
NCI-H2085 | 0.443 | 0.455 | 0.432 | 0.324 | 0.355 | 0.408 | 0.436 | 0.369 | 0.314 | 0.279 | 0.896 | 0.967 | 0.828 | 0.301 | 0.464 | 0.461 | 0.477 | 0.513 | 0.409 | 0.323
NCI-H838 | 0.22 | 0.173 | 0.169 | 0.153 | 0.129 | 0.269 | 0.176 | 0.142 | 0.119 | 0.162 | 0.701 | 0.68 | 0.661 | 0.594 | 0.649 | 0.172 | 0.238 | 0.169 | 0.226 | 0.244
NCI-H460 | 0.0989 | 0.126 | 0.0546 | 0.0357 | 0.0284 | 0.0436 | 0.0291 | 0.0214 | 0.0162 | 0.0138 | 0.409 | 0.475 | 0.269 | 0.134 | 0.0663 | 0.131 | 0.11 | 0.111 | 0.0408 | 0.0313
LOU-NH91 | 0.476 | 0.449 | 0.428 | 0.35 | 0.364 | 0.307 | 0.315 | 0.307 | 0.282 | 0.298 | 0.715 | 0.667 | 0.576 | 0.421 | 0.369 | 0.556 | 0.545 | 0.516 | 0.468 | 0.428
NCI-H322M | 0.472 | 0.562 | 0.484 | 0.428 | 0.491 | 0.781 | 0.783 | 0.709 | 0.442 | 0.42 | 0.529 | 0.523 | 0.564 | 0.436 | 0.416 | 0.526 | 0.481 | 0.436 | 0.467 | 0.445
NCI-H727 | 0.346 | 0.721 | 0.654 | 0.526 | 0.636 | 0.375 | 0.376 | 0.357 | – | 0.223 | 0.683 | 0.574 | 0.451 | 0.33 | 0.463 | 0.67 | 0.675 | 0.581 | 0.689 | 0.767
NCI-H1793 | 0.316 | 0.302 | 0.313 | 0.216 | 0.19 | 0.169 | 0.157 | 0.286 | 0.175 | 0.153 | 0.316 | 0.564 | 0.341 | 0.159 | 0.177 | – | 0.321 | 0.2 | 0.305 | 0.29
NCI-H1734 | 0.29 | 0.245 | 0.27 | 0.207 | 0.172 | 0.167 | 0.187 | 0.198 | 0.13 | 0.147 | 0.485 | 0.449 | 0.325 | 0.21 | 0.151 | 0.358 | 0.374 | 0.312 | 0.306 | 0.242
LXF-289 | 0.58 | 0.571 | 0.606 | 0.324 | 0.221 | 0.568 | 0.472 | 0.49 | 0.133 | 0.093 | 1.01 | 1.07 | 0.928 | 0.419 | 0.143 | 0.618 | 0.606 | 0.621 | 0.487 | 0.331
H3255 | 0.324 | 0.324 | 0.283 | 0.312 | 0.279 | 0.817 | 0.878 | 0.652 | 0.52 | 0.351 | 0.905 | 0.819 | 0.713 | 0.55 | 0.401 | 0.331 | 0.334 | 0.351 | 0.315 | 0.281
201T | 0.397 | 0.32 | 0.384 | 0.311 | 0.336 | 1.06 | 0.984 | 0.936 | 0.667 | 0.656 | 0.487 | 0.543 | 0.438 | 0.422 | 0.334 | 0.366 | 0.35 | 0.325 | 0.349 | 0.385
HOP-62 | 0.249 | 0.259 | 0.285 | 0.167 | 0.125 | 0.66 | 0.705 | 0.462 | 0.254 | 0.193 | 0.325 | 0.292 | 0.209 | 0.16 | 0.0932 | 0.408 | 0.478 | 0.464 | 0.356 | 0.273
CAL-12T | 0.309 | 0.365 | 0.232 | 0.116 | 0.192 | 0.493 | 0.555 | 0.233 | 0.173 | 0.143 | 0.497 | 0.603 | 0.436 | 0.289 | 0.24 | 0.346 | 0.505 | 0.299 | 0.306 | 0.285
NCI-H1755 | 0.433 | 0.435 | 0.457 | 0.408 | 0.428 | 0.582 | 0.695 | 0.22 | 0.33 | 0.244 | 0.41 | 0.495 | 0.36 | 0.353 | 0.311 | 0.436 | 0.397 | 0.454 | 0.429 | 0.456
